Laboratory results taken from the NIST ThermoML archive (doi:10.1021/je8007843).
± gives the expanded uncertainty stated by the source.

Settings: Crystal; visual observation

Normal melting temperature | Compound
57.6 ± 0.6 °C | Nc1ccccn1 [2-pyridinamine]
121.7 ± 1.2 °C | Nc1cccc(N)n1 [pyridine-2,6-diamine]
